This note sets out measurements from publication PMC6613932 (Bioorganic & medicinal chemistry letters, 2018).

For the assay, the target named is 5-HT2AR (Homo sapiens, UniProt P28223). Kind of assay: Inhibition of 5-HT. Type of assay: cell-based. Particulars: inhibition of 1 μM 5-HT-evoked Cai2+ release; compared with parent (+)-M100907.
Chain of 5-HT2AR (P28223 whole entry): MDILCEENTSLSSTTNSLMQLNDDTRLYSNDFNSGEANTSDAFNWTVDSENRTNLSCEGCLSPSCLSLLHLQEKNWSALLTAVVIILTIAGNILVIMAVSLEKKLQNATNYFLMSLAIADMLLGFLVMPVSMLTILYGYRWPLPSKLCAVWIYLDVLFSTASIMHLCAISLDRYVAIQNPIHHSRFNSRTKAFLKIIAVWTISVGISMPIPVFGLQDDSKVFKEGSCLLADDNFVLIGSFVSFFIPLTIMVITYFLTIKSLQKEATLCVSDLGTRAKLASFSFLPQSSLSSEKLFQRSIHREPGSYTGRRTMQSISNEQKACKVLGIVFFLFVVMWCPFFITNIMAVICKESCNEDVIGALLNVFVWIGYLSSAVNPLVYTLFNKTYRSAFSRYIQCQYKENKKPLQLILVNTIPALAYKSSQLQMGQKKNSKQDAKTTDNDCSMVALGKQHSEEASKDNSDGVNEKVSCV
Consider `COc1c(OCCOCCN=[N+]=[N-])cccc1[C@H](O)C1CCN(CCc2ccc(F)cc2)CC1` [Compound 4], for which the “antagonist activity / potency in words” value is listed as “retained antagonist activity”.

In the case of `C#CCOCCOCCOc1cccc([C@H](O)C2CCN(CCc3ccc(F)cc3)CC2)c1OC` [Compound 5], the “antagonist activity / potency in words” value was “slightly lower potency”. Turning to `COc1c(OCCOCCOc2cn(CCOCCOc3cccc([C@H](O)C4CCN(CCc5ccc(F)cc5)CC4)c3OC)nn2)cccc1[C@H](O)C1CCN(CCc2ccc(F)cc2)CC1` [Compound 15], the “antagonist activity / potency in words” value was “slightly lower potency”.
